The values below come from publication PMC9996622 (ACS Omega, 2023).

The assay concerns the target T1, DnaE1 (Mycobacterium tuberculosis, UniProt P9WNT7).
T1 sequence (P9WNT7 1-1184): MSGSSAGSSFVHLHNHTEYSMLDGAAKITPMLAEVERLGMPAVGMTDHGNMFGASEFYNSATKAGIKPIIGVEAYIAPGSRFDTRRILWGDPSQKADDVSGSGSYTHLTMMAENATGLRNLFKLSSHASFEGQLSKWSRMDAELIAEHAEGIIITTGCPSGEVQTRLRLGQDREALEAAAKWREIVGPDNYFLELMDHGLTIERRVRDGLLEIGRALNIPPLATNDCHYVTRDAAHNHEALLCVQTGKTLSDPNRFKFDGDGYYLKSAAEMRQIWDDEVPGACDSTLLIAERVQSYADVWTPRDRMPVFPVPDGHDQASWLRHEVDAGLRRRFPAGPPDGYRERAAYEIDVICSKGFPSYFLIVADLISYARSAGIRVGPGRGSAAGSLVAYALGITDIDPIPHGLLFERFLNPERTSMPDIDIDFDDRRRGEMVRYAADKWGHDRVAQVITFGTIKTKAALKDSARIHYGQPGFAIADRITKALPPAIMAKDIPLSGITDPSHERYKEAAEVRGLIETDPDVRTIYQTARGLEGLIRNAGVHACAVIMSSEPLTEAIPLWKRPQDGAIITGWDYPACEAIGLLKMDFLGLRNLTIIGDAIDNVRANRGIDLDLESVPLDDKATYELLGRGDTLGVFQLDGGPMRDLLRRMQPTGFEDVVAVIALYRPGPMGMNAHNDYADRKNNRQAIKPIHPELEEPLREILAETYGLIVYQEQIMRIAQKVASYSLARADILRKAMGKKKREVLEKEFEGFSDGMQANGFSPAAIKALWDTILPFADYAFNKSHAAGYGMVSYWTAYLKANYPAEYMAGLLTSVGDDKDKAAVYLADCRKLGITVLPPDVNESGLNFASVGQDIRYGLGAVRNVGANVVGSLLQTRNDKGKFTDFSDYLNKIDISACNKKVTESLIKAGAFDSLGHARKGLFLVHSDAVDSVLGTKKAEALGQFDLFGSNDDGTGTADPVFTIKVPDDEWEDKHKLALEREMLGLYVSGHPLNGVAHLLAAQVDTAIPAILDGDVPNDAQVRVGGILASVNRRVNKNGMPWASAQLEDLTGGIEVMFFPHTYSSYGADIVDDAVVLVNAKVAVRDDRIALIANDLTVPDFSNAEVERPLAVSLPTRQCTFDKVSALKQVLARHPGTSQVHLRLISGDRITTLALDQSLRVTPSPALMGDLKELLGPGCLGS
The assay is described as follows: 2-aminopurine fluorescence exonuclease assay, dose-response. The assay is classed as biochemical.

By IC50 is commonly meant the concentration that inhibits the measured activity by half. Read a low IC50 as inhibition by little substance. For the molecule `OC[C@H]1O[C@@H](n2cnc3c(S)ncnc32)[C@H](O)[C@@H]1O` [6-thioinosine], 64 µM corresponded to half-maximal inhibition (IC50).
